From patent publication US8084430B2, “ENT-kaurene diterpene compound and its derivatives, their preparation and their use” (Zhengzhou University, priority 2006, dated 2011)
Converted amounts (≈) assume the structure as drawn. “Also recorded” adds a separate entry of the source.

Key:
[1] = system: Human esophageal carcinoma Ec109 cells; test: MTT activity against esophageal carcinoma Ec109 cells; assay type: cell-based
Procedure: Human esophageal carcinoma Ec109 cells were taken as target cells (Henan Institute of Medical Sciences), which were cultured in RPMI1640 medium (GIBCO) with 10% fetal bovine serum (TBD) at 37° C., in 5% CO2. The cells in logarithmic growth phase were inoculated in a 96-well plate, each well containing 6×10^3 cells. After 24 hours culture, the Jiyuan oridonin A (the compound obtained in example 1), derivative 1 and derivative 2 in different concentrations were added. After continuous 48 hours culture, the medical solution was removed carefully by absorption, followed by washing with RPMI 1640 medium without fetal bovine serum 3 times. 200 μL of medium with 0.2 mg/mL MTT were added in each well and incubated at 37° C. for 4 hours. The supernatant was removed and 200 μL of DMSO was added. After 10 min of shaking, the colorimetric method was used to determine the OD value of the control group and sample groups by an enzyme-labeling instrument with a detection wavelength of 570 nm, and a reference wavelength of 450 nm. The inhibition rate against cells of drugs in different concentrations was calculated and hemi-inhibitory concentration IC50 (μg/mL) was calculated based on cell inhibition curve.

α-glucosidase = test: Inhibitory activity against glycosidase (α-glucosidase); assay type: biochemical, baker's yeast
Procedure: (§1) After keeping at 37° C. for 40 min, the reaction substrate, p-nitrophenyl glucoside (2.5 mM, 20 μl), was added in each well, and kept at 37° C. for 5 min. The reaction was terminated by addition of buffer, 0.1 M Na2CO3 100 μl, and the OD value was determined at 405 nm by colorimetric method. 0.067M phosphate buffer containing 10% DMSO was used instead of the compounds in negative control group. Inhibition rate=(1−OD value of experimental group/OD value of negative control group)×100%, the IC50 value was calculated by drawing.

β-glucosidase = test: Inhibitory activity against glycosidase (β-glucosidase); assay type: biochemical, baker's yeast
Procedure: as §1

IC50 ([1]; Homo sapiens, ECa-109, Ec109 cells, 48 hours culture, MTT): 4.52 mg/L (≈ 13 µM)
Inhibitory activity against α-glucosidase (α-glucosidase; compound concentration of 1 mM): 26.3
inhibitory activity against α-glucosidase in vitro (conclusion in words) (α-glucosidase; in vitro): certain inhibitory activity
Inhibitory activity against β-glucosidase (β-glucosidase; compound concentration of 1 mM): 25.0
inhibitory activity against β-glucosidase in vitro (conclusion in words) (β-glucosidase; in vitro): certain inhibitory activity
SMILES: C=C1C(=O)C23C([C@@H](O)CC1[C@H]2O)[C@]12CCCC(C)(C)C1C[C@H]3OC2O (stereo partly drawn) [Jiyuan oridonin A]
cytotoxic activity against Ec109 cell (conclusion in words) ([1]; Ec109 cell): higher cytotoxic activity; also recorded: highest activity
